Test results from PubChem BioAssay AID179 (DTP/NCI, 2004).
Where “and” joins values, the source holds several entries; their conditions need not be identical. Identical values can stand only once. Calls of active or inactive are those of the source.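 The calls were made as follows: active = compounds giving half or more protection of infected cells from virus-caused growth loss, again on retest; inactive = the rest.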

Tested on: CEM cells HIV-1 protection, formazan growth assay
Assay: NCI AIDS Antiviral Assay
Conditions: for IC50: measured here: growth of uninfected CEM cells
In short: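 Category rules: moderately active means at least 50% protection on retest, and confirmed active means 100% protection reproducibly. The underlying data came from a formazan growth assay in HIV-1-infected CEM cells.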

Structure (SMILES)	EC50	IC50	outcome
Cc1nc([N+](=O)[O-])cn1CC(=N)N	> 1120 µM	> 1120 µM	
O=C(/C=C/c1ccc2c(c1)OCO2)c1ccccc1	> 200 µM	7.08 µM and 11.2 µM	
CC1=C(C(=O)Nc2ccc(C)cc2)C(c2cccc([N+](=O)[O-])c2)C(C(=O)Nc2ccc(C)cc2)=C(C)N1	> 14.5 µM	> 14.5 µM	
O=C(O)c1cc2oc(-c3ccccc3)cc2[nH]1	> 219 µM	155 µM	
COc1c(C)c(-c2c(C)c(OC)c3c(c2OC)OCO3)c(OC)c2c1OCO2	> 200 µM	170 µM	
CNc1nc(SC)n(C)c(=O)c1N=O			inactive
NC(=O)C(=O)n1ncc(Cl)c(Cl)c1=O	> 30.9 µM	> 30.9 µM	
Cc1ccc2c(c1)CC1(Cc3ccccc3C1=O)C2=O (centres undefined)	> 200 µM	195 µM	
CCn1c2c(c3ccccc3c1=O)C(=O)c1ccccc1-2	> 26.3 µM	> 26.3 µM	
CN1c2ccccc2C(=O)N2C(=O)CCC21C (centres undefined)	> 200 µM	> 200 µM	
N#C/C=C\c1cccc(C#N)c1	> 46.8 µM	> 46.8 µM	
Clc1ccc(COC(Cn2ccnc2)c2ccc(Cl)cc2Cl)c(Cl)c1 (centres undefined)	> 200 µM	14.1 µM	
COc1ccc2nc3cc(Cl)ccc3c(NCCC[N+](C)(C)CCCCCCCCCCCCCCCC[N+](C)(C)CCCNc3c4ccc(Cl)cc4nc4ccc(OC)cc34)c2c1			inactive
CC(=O)Oc1c(Cl)cc(C(=CCC[C@H]2CC[C@@]3(C)[C@@H](CC[C@@H]4[C@@H]3CC[C@]3(C)[C@@H](C(C)CCCC(C)C)CC[C@@H]43)C2)c2cc(Cl)c(OC(C)=O)c(C(=O)OCc3ccccc3)c2)cc1C(=O)OCc1ccccc1 (some centres undefined)	> 200 µM	> 200 µM	
CCOP(=O)(OCC)OC1c2[nH]ccc2-c2cc(C(=O)OC)[nH]c2C1OC (centres undefined)	> 200 µM	102 µM	
CCN(CC)C(=S)SC1C(=O)NC(=O)NC1=O	> 200 µM	> 200 µM	
CCN(Cc1ccccc1)c1ccc(/C=C/c2ccnc3ccccc23)cc1	> 10.2 µM	8.32 µM	
NC1=NS(=O)(=O)N=C(N)C1=NNc1ccc([N+](=O)[O-])cc1	> 794 µM	126 µM	
O=C(N/N=C/c1c(-c2ccccc2)no[n+]1[O-])N1CCOCC1	> 100 µM	> 100 µM	
C=C1[C@@H]2CC[C@@]3([C@@H](C2)[C@@]24CCC[C@@]5(C)CN(CCO)[C@@H]2O[C@@H]3C[C@H]54)[C@@H]1O			inactive
CCCCCCCN1C(=O)C(O)(c2ccc(C3(O)C(=O)N(CCCCCCC)c4ccccc43)s2)c2ccccc21 (centres undefined)	> 200 µM	11.2 µM	
CC(=O)NC(CCC(=O)c1ccc(Cl)cc1)C(=O)O (centres undefined)	> 200 µM	> 200 µM	

Structure (SMILES)	EC50	IC50	outcome
CC1=C(c2cc(C(=O)Nc3ccc(Cl)cc3)nc(=S)[nH]2)Sc2ccccc2N1	> 85.1 µM	> 85.1 µM	
COc1cc2c(cc1OC)-c1nc(N)sc1CC2	> 38 µM	> 38 µM	
CN=C1Nc2ccccc2C(=S)N2CSC[C@@H]12	> 200 µM	> 200 µM	
C[CH2][Sn]([CH2]C)([S]CCS(=O)(=O)O)[S]CCS(=O)(=O)O (tested in a mixture with another compound)	> 200 µM	3.16 µM	
O=C(C1OC1c1ccc(O)cc1)C12CC3CC(CC(C3)C1)C2 (centres undefined)	> 200 µM	52.5 µM	
COc1ccc2nc3n(c2c1)C(c1c(Cl)cccc1Cl)SC3 (centres undefined)	> 200 µM	> 200 µM	
CCN1c2nc3ccccc3nc2N(CC)c2nc3ccccc3nc21	> 200 µM	41.7 µM	
C=C1CN(S(=O)(=O)c2ccc(C)cc2)CCCN(Cc2ccccc2)CCN(S(=O)(=O)c2ccc(C)cc2)C1	> 200 µM	155 µM	
Cc1cc(Cl)ccc1NC(=O)C1C(=O)N(c2ccc(Cl)cc2C)C(=O)/C1=N\NC(N)=S (centres undefined)	> 11 µM	> 11 µM	
CCc1ccc(/C(C#N)=C/c2ccccc2Cl)cc1	> 200 µM	27.5 µM	
CC(C)(C)OC(=O)c1cc(NC(=S)c2ccccc2)ccc1Cl	0.363 µM	19.1 µM	
Cc1ccc(S(=O)(=O)NCCSSCCNS(=O)(=O)c2ccc(C)cc2)cc1	> 200 µM	19.5 µM and 26.9 µM	
Cc1cccc2c1CC(C1OC(=O)c3c(C)cccc31)C2=O (centres undefined)	> 200 µM	120 µM	
CCCCCCCCCCCCOCCCCCCCCC/C=C/c1ccc2c(c1)OCCOCCOCCOCCO2	> 200 µM	15.1 µM	
Cc1ccc2nc(NC(=O)C(=O)C(C(=O)c3ccc4ccccc4c3)C3OC(=O)c4ccccc43)sc2c1 (centres undefined)	> 50.1 µM	25.7 µM	
COc1cc2ccn3c4cc(OC)c(OC)cc4cc3c2cc1OC	7.94 µM	8.13 µM	
CC(C(=O)O)n1c(=O)ssc1=O (centres undefined)	63.1 µM	123 µM	
O=C1C(Cl)=C(O)C2(Cl)C(Cl)=C(Cl)C12Cl (centres undefined)			inactive
O=C1OC(C2(O)OC(=O)c3ccccc32)c2ccccc21 (centres undefined)	> 200 µM	> 200 µM	
C#CC1(O)C(/C=N/O)OC(n2ccc(=O)[nH]c2=O)C1O[Si](C)(C)C(C)(C)C (centres undefined)	> 200 µM	72.4 µM	
Cc1cc(-c2no[n+]([O-])c2-c2cc(C)sc2S(C)(=O)=O)c(S(C)(=O)=O)s1	> 200 µM	> 200 µM	
Cc1cc2c(=O)cc(-c3ccncc3)oc2c(C(=O)O)c1C	> 851 µM	> 851 µM	

Structure (SMILES)	EC50	IC50	outcome
CSc1ccn(C2CC(F)C(CO)O2)c(=O)n1 (centres undefined)	42.7 µM	> 200 µM	
CC(=S)N/C=C(\C#N)c1nc2ccccc2s1	> 200 µM	107 µM	
CCc1cccc(C(=O)NCCN(C)C)c1[N+](=O)[O-]	> 200 µM	> 200 µM	
CCO[C@H]1OC(=O)[C@@H]2C(c3ccc([N+](=O)[O-])cc3)=NO[C@H]12	> 46.8 µM	> 46.8 µM	
[N-]=[N+]=C1C(=O)NCN=C1c1ccccc1	> 339 µM	> 339 µM	
Clc1ccccc1-c1nc2ccc(C34CC5CC(CC(C5)C3)C4)cc2[nH]1	> 200 µM	162 µM	
Cc1ccc(NC(=O)CC(=O)N2N=C(N3CCCCC3)CC2c2ccccc2)cc1 (centres undefined)	> 200 µM	> 200 µM	
Oc1ccc(/C=C/c2cc(O)cc3c2C(c2cc(O)cc4c2C(c2cc(O)cc(O)c2)C(c2ccc(O)cc2)O4)C(c2ccc(O)cc2)O3)cc1 (centres undefined)	> 20.9 µM	10.5 µM	
C=CCCCCCCCCCOC1C=CC(OC(C)=O)C(COC(C)=O)O1 (centres undefined)	> 200 µM	63.1 µM	
NC(=O)NC(S(=O)(=O)O)S(=O)(=O)O			inactive
COc1ccc(-c2cc(-c3cc(C)cc(Cl)c3O)nc3[nH]c(=S)[nH]c(=S)c23)cc1	> 200 µM	4.17 µM	
CC1=CC(C)(C)NC(=S)N1c1ccc(C)c(N2C(=S)NC(C)(C)C=C2C)c1			inactive
COC1=CC(=O)C=C(CO)C1=O	> 562 µM	10 µM	
O=C1C(=O)c2ccccc2C(O)=C1CCCc1ccc(Oc2ccccc2)cc1			inactive
O=c1ccn(C2OC(CO)C(F)C2F)c(=O)[nH]1 (centres undefined)	> 501 µM	> 501 µM	
O=C(O)/C=C/n1c2ccccc2c(=O)c2ccccc21	> 70.8 µM	> 70.8 µM	
CC(=O)NC(CCC(=O)c1ccc(Oc2ccccc2)cc1)C(=O)O (centres undefined)	> 200 µM	> 200 µM	
O=C(NCc1cccnc1)C1COc2cc(-c3cc(=O)c4ccccc4o3)ccc2O1 (centres undefined)			inactive
O=C(Nc1sccc1S(=O)(=O)c1ccccc1)c1ccccc1	> 20 µM	11.7 µM	
CCOC(=O)NC(Nc1ccc(C(=O)OCC)cc1)(C(F)(F)F)C(F)(F)F	> 200 µM	17 µM	
C[C@H]1[C@H](C)Oc2c3c(c4c(CO)cc(=O)oc4c2[C@H]1O)OC(C)(C)C=C3	> 200 µM	> 200 µM	
COc1ccc2ccccc2c1C1OC(=O)c2ccccc21 (centres undefined)	> 46.8 µM	28.8 µM	

Structure (SMILES)	EC50	IC50	outcome
O=C(c1ccco1)n1c2ccc(Br)cc2c2nc3ccccc3nc21	> 50.1 µM	22.4 µM	
CC(=O)N(C(=O)CC(=O)NNCc1ccccc1Cl)c1ccc(Cl)cc1	> 200 µM	> 200 µM	
COC(=O)C(=O)C1(CCC(C)=O)c2ccccc2-c2c(C)ccc(C)c21 (centres undefined)			inactive
S=c1[nH]nc2ccccn12	> 200 µM	> 200 µM	
O=C1C(=Cc2cccc(O)c2)N=C(c2ccccc2)N1n1c(-c2ccccc2)nc2ccccc2c1=O	> 200 µM	8.51 µM	
O=C(Nc1ccc(C(=O)O)c(O)c1)c1ccc(C(=O)Nc2ccc(C(=O)O)c(O)c2)cc1	> 200 µM	89.1 µM	
FC(F)(F)C1(C(F)(F)F)C2CCC3(CC(F)(F)C(F)(F)S3)C1C2 (centres undefined)	> 200 µM	> 200 µM	
[O-][n+]1ccccc1SSc1cccc[n+]1[O-]	> 2 µM	0.141 µM	
CCOC(=O)c1ccc(CSc2ccc(OC)cc2)c([N+](=O)[O-])c1	> 102 µM	19.1 µM	
CC1(c2ccccc2)CC(c2ccccc2)=NO1 (centres undefined)	> 57.5 µM	> 57.5 µM	
N#C[C@H](c1nc2ccccc2[nH]1)c1nc2ccccc2nc1Cl	> 200 µM	11 µM	
CN(C)c1nc(N(C)C)nc(N2C(=O)CCC2=O)n1	> 200 µM	> 200 µM	
CSc1nc(NC2OC(COC(C)=O)C(OC(C)=O)C(OC(C)=O)C2OC(C)=O)c(-c2csc(N)n2)c(=O)n1C (centres undefined)			inactive
c1ccc(CN2CCC3(CC2)SSC2(CCN(Cc4ccccc4)CC2)S3)cc1	> 100 µM	87.1 µM	
CC(C)C(OC(=O)c1cc(NC(=S)c2ccccc2)ccc1Cl)C(C)C	0.437 µM	11.7 µM	
Cc1ccc(C2=C(O)C(=O)C(c3ccc(C)cc3)=C(O)C2=O)cc1	> 52.5 µM	26.3 µM	
CCCCN(CCCC)/N=C/c1c2c(O)c3c(O)c(C)c4c(c3c1O)C(=O)C(C)(O/C=C/C(OC)C(C)C(OC(C)=O)C(C)C(O)C(C)C(O)C(C)/C=C/C=C(C)C(=O)N2)O4 (centres undefined)	> 200 µM	9.12 µM	
Nc1cc(Cl)cc(Cl)c1O	> 162 µM	120 µM	
N#Cc1ccsc1Nc1ccccc1[N+](=O)[O-]	95.5 µM	> 200 µM	
CCC(=O)NC1Cc2cc(C)cc(C)c21 (centres undefined)	> 89.1 µM	> 89.1 µM	
CC(=O)O[C@]12CCCCCCC1C1(O)C(O)CCC[C@H]12 (some centres undefined)	> 200 µM	> 200 µM	
